Values of other authors, collected in US20090285877A1, “Percutaneous absorption preparation containing palonosetron” (HISAMITSU PHARMACEUTICAL CO., INC.,, priority 2008, published 2009).

Target: T1, 5-HT3 receptor (Homo sapiens, UniProt P46098)
T1 sequence (P46098 24-478): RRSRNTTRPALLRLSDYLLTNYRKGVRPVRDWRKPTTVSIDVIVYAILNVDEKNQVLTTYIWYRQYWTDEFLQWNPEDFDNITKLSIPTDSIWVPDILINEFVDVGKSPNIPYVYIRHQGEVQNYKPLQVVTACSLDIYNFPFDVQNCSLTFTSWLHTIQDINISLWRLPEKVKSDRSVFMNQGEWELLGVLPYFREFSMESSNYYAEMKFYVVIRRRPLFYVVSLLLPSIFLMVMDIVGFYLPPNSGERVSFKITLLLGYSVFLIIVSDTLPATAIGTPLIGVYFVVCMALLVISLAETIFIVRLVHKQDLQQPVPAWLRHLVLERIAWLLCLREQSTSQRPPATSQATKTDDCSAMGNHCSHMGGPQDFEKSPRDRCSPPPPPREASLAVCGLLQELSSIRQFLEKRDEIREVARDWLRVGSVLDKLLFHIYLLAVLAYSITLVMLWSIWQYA

## Cl.O=C1c2cccc3c2[C@H](CCC3)CN1[C@@H]1CN2CCC1CC2 [Palonosetron hydrochloride, (3aS)-2-[(S)-1-azabicyclo[2.2.2]oct-3-yl]-2,3,3a,4,5,6-hexahydro-1-oxo-1H-1Hbenz[de]isoquinoline hydrochloride]
  binding affinity for 5-HT3 receptor: high binding affinity
